Reference: US9247759B2, “Identification of human T2R receptors that respond to bitter compounds that elicit the bitter taste in compositions, and the use thereof in assays to identify compounds that inhibit (block) bitter taste in compositions and use thereof” (SENOMYX, INC., priority 2007, dated 2016)
Like-named read-outs stand apart in the source and are kept apart here.

What was measured:
[1] = target: T1, hT2R14 (Homo sapiens (Human), UniProt Q9NYV8); assay: hT2R panel inhibition, transient HEK293 G16g44, agonist Aristolochic Acid 2 μM; format: cell-based; conditions: HEK293, compound at 25 μM
Outline: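 Each hT2R was transiently transfected into HEK293 cells stably expressing G16g44 and assayed functionally for inhibition of agonist response. Agonists were applied at EC80: andrographolide at 0.5 mM for hT2R8 and aristolochic acid at 2 μM for hT2R14.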

[2] = target: hT2R10 (Homo sapiens (Human), UniProt Q9NYW0); assay: hT2R panel inhibition, transient HEK293 G16g44, agonist Strychnine 50 μM; format: cell-based
[3] = target: hT2R13 (Homo sapiens (Human), UniProt Q9NYV9); assay: hT2R panel inhibition, transient HEK293 G16g44, agonist Oxyphenonium 1 mM; format: cell-based; conditions: HEK293, compound at 25 μM
Outline: (§1)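 Receptor activity was measured in functional assays after single-receptor transient transfection; bitter agonists were used at their EC80 levels. A decrease in that activity when the test compound was added was taken as inhibition.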

[4] = target: hT2R4 (Homo sapiens (Human), UniProt Q9NYW5); assay: hT2R panel inhibition, transient HEK293 G16g44, agonist Chloroquine pH6.5 5 mM; format: cell-based; conditions: HEK293, compound at 25 μM; receptor activated to EC80 with agonist; read-out: inhibition of bitter receptor 4
Outline: as §1

[5] = test system: hT2R55; assay: hT2R panel inhibition, transient HEK293 G16g44, agonist Cinchonine 150 μM; format: cell-based, human; conditions: compound at 25 μM; for screening result against bitter receptor 55: receptor activated to EC80 with the corresponding agonist
Outline: as §1

[6] = target: hT2R16 (Homo sapiens (Human), UniProt Q9NYV7); assay: hT2R panel inhibition, transient HEK293 G16g44, agonist Salicin 1 mM; format: cell-based; conditions: HEK293, compound at 25 μM
Outline: as §1

[7] = target: hT2R7 (Homo sapiens (Human), UniProt Q9NYW3); assay: hT2R panel inhibition, transient HEK293 G16g44, agonist Chloroquine pH6.5 10 mM; format: cell-based; conditions: HEK293, compound at 25 μM
Outline: as §1

[8] = target: hT2R64 (Homo sapiens (Human), UniProt P59538); assay: hT2R panel inhibition, transient HEK293 G16g44, agonist Aristolochic Acid 1 μM; format: cell-based; conditions: HEK293, compound at 25 μM
Outline: as §1

[9] = test system: hT2R65; assay: hT2R panel inhibition, transient HEK293 G16g44, agonist Oleuropein 1 mM; format: cell-based, human; conditions: compound at 25 μM
Outline: as §1

[10] = test system: hT2R54; assay: hT2R panel inhibition, transient HEK293 G16g44, agonist Ranitidine 5 mM; format: cell-based, human; conditions: compound at 25 μM; receptor activated to EC80 with agonist
Outline: as §1

[11] = test system: hT2R44; assay: hT2R panel inhibition, transient HEK293 G16g44, agonist Denatonium 0.5 μM; format: cell-based, human; conditions: compound at 25 μM; for screening result against bitter receptor 44: receptor activated to EC80 with the corresponding agonist
Outline: as §1

[12] = test system: hT2R63; assay: hT2R panel inhibition, transient HEK293 G16g44, agonist Caffeine 1 mM or Andrographolide 100 μM; format: cell-based, human; conditions: compound at 25 μM; for screening result against bitter receptor 63: receptor activated to EC80 with the corresponding agonist
Outline: as §1

[13] = target: hT2R71 (Homo sapiens (Human), UniProt P59536); assay: hT2R panel inhibition, transient HEK293 G16g44, agonist Picric Acid 10 μM; format: cell-based; conditions: HEK293, compound at 25 μM
Outline: as §1

[14] = target: hT2R3 (Homo sapiens (Human), UniProt Q9NYW6); assay: hT2R panel inhibition, transient HEK293 G16g44, agonist Chloroquine pH6.5 50 μM; format: cell-based; conditions: HEK293, compound at 25 μM
Outline: as §1

[15] = target: hT2R51 (Homo sapiens (Human), UniProt P59533); assay: hT2R panel inhibition, transient HEK293 G16g44, agonist Prop 2.5 μM; format: cell-based; conditions: HEK293, compound at 25 μM
Outline: as §1

[16] = test system: hT2R67; assay: hT2R panel inhibition, transient HEK293 G16g44, agonist Andrographolide 5 μM; format: cell-based, human; conditions: compound at 25 μM; receptor activated to EC80 with agonist
Outline: as §1

[17] = target: hT2R61 (Homo sapiens (Human), UniProt P59537); assay: hT2R panel inhibition, transient HEK293 G16g44, agonist Aristolochic Acid 25 nM; format: cell-based; conditions: HEK293, compound at 25 μM
Outline: as §1

[18] = target: hT2R5 (Homo sapiens (Human), UniProt Q9NYW4); assay: hT2R panel inhibition, transient HEK293 G16g44, agonist Picoline 10 mM; format: cell-based; conditions: HEK293, compound at 25 μM; receptor activated to EC80 with the corresponding agonist; read-out: screening result against bitter receptor 5
Outline: as §1

[19] = target: hT2R9 (Homo sapiens (Human), UniProt Q9NYW1); assay: hT2R panel inhibition, transient HEK293 G16g44, agonist Ofloxacin 1 mM; format: cell-based; conditions: HEK293, compound at 25 μM; receptor activated to EC80 with the corresponding agonist; read-out: screening result against bitter receptor 9
Outline: as §1

[20] = target: T1, hT2R14; assay: hT2R14 antagonist high-throughput FLIPR assay, stable cell line with G16g44, agonist aristolochic acid; format: cell-based; conditions: read-out: IC50 on hT2R14 bitter receptor
Outline: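 HEK293 cells stably expressing hT2R14 with chimeric G16g44 were stimulated with aristolochic acid (3 μM), giving 70-80% of maximal receptor activity. Test compounds were added together with the agonist, and antagonism was read as fluorescent calcium signal on FLIPR.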

[21] = target: hT2R75 (Homo sapiens (Human), UniProt P59540); assay: hT2R panel inhibition, transient HEK293 G16g44, agonist Strychnine 1 μM; format: cell-based; conditions: HEK293, read-out: screening result against bitter receptor 75, compound at 25 μM; receptor activated to EC80 with the corresponding agonist
[22] = receptor activated to EC80 with agonist
[23] = receptor activated to EC80 with the corresponding agonist, read-out: screening result against bitter receptor 14
[24] = HEK293, read-out: screening result against bitter receptor 10, compound at 25 μM, receptor activated to EC80 with the corresponding agonist
[25] = receptor activated to EC80 with the corresponding agonist, read-out: screening result against bitter receptor 13
[26] = receptor activated to EC80 with the corresponding agonist, read-out: screening result against bitter receptor 16
[27] = receptor activated to EC80 with the corresponding agonist, read-out: screening result against bitter receptor 7
[28] = receptor activated to EC80 with the corresponding agonist, read-out: screening result against bitter receptor 64
[29] = receptor activated to EC80 with the corresponding agonist, read-out: screening result against bitter receptor 71
[30] = receptor activated to EC80 with the corresponding agonist, read-out: screening result against bitter receptor 3

T1 sequence (Q9NYV8 whole entry): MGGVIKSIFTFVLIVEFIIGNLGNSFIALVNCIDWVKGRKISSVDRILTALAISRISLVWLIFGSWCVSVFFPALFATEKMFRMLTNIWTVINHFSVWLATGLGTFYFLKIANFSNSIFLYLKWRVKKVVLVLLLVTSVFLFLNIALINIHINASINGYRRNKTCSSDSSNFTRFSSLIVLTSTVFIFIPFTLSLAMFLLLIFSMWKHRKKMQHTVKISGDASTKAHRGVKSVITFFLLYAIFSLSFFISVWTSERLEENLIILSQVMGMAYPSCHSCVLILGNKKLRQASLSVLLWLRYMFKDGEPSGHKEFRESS
Chain of hT2R3 (Q9NYW6 whole entry): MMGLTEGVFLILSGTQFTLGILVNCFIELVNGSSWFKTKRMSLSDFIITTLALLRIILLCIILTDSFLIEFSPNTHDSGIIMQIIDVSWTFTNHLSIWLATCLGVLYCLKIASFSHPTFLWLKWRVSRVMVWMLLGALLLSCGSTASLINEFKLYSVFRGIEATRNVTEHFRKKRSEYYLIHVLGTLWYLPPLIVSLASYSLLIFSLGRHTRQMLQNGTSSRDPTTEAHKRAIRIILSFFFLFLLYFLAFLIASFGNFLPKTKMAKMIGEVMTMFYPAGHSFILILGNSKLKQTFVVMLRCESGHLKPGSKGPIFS
Chain of hT2R7 (Q9NYW3 whole entry): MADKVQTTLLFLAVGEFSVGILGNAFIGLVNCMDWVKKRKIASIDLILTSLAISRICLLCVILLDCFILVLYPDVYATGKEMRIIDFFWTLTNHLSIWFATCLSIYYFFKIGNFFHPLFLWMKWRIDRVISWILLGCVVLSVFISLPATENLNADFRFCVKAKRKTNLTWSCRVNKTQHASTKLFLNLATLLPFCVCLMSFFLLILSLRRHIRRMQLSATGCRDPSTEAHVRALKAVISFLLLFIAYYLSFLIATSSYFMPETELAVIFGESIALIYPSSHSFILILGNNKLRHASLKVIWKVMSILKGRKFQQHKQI
Chain of hT2R71 (P59536 whole entry): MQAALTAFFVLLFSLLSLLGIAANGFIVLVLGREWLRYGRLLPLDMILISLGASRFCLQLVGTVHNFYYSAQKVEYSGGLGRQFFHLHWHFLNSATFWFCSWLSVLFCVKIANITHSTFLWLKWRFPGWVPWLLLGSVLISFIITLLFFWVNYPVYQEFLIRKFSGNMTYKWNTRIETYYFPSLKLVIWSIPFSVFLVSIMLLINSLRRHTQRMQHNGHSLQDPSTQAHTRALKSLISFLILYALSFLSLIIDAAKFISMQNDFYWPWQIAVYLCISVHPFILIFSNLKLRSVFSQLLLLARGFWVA
Chain of hT2R64 (P59538 whole entry): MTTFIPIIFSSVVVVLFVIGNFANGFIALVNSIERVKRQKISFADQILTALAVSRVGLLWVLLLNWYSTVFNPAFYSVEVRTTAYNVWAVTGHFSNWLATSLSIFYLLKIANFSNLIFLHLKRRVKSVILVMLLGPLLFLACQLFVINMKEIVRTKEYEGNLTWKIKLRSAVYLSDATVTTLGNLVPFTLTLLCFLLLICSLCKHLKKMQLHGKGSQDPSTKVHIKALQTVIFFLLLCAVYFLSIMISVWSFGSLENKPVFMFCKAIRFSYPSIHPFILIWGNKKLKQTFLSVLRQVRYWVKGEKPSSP
Chain of hT2R10 (Q9NYW0 whole entry): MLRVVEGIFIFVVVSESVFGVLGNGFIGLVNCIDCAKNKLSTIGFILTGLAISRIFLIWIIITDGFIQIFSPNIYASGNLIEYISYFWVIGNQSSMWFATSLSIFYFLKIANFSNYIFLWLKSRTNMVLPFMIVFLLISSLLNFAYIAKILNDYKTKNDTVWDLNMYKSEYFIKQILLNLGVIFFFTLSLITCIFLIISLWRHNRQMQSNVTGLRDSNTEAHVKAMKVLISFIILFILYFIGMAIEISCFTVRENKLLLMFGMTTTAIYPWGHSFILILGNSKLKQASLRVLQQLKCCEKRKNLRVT
Chain of hT2R13 (Q9NYV9 whole entry): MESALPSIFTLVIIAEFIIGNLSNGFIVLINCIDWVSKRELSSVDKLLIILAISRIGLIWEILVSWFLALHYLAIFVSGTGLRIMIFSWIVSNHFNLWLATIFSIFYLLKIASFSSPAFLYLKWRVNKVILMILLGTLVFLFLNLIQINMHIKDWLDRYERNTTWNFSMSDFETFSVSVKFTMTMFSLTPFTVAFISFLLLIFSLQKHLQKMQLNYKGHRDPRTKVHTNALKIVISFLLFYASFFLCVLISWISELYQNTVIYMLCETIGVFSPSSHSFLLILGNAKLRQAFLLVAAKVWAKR
Chain of hT2R16 (Q9NYV7 whole entry): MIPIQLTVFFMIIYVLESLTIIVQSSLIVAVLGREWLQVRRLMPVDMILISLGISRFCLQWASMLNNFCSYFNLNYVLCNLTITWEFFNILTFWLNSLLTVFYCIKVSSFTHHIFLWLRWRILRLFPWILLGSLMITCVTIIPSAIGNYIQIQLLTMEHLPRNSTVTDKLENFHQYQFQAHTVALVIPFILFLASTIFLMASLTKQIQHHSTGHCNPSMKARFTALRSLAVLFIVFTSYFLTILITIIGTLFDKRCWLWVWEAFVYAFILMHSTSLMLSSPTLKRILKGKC
Chain of hT2R61 (P59537 whole entry): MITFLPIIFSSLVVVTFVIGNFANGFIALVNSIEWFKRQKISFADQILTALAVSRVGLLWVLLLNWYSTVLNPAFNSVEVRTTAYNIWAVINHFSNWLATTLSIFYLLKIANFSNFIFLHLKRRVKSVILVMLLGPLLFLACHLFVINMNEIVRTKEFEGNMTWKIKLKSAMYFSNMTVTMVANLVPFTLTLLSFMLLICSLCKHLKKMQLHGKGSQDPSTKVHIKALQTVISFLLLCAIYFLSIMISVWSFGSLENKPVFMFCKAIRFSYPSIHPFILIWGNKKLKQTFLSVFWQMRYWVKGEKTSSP
Chain of hT2R9 (Q9NYW1 whole entry): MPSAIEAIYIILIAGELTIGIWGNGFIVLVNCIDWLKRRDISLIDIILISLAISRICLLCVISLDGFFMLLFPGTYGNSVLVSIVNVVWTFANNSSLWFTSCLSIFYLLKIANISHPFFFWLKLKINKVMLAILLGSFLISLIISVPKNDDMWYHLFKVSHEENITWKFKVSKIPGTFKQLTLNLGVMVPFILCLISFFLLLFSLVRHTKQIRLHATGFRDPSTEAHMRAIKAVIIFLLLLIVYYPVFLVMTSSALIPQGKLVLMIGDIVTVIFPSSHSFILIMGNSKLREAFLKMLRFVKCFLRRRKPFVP
Chain of hT2R5 (Q9NYW4 whole entry): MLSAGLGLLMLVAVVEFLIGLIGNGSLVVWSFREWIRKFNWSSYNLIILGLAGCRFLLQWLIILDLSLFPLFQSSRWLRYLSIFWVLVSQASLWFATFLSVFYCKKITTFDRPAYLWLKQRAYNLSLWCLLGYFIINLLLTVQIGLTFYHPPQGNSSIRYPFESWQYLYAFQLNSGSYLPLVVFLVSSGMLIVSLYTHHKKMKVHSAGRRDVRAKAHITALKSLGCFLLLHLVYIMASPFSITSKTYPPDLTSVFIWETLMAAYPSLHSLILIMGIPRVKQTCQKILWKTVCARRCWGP
Chain of hT2R51 (P59533 whole entry): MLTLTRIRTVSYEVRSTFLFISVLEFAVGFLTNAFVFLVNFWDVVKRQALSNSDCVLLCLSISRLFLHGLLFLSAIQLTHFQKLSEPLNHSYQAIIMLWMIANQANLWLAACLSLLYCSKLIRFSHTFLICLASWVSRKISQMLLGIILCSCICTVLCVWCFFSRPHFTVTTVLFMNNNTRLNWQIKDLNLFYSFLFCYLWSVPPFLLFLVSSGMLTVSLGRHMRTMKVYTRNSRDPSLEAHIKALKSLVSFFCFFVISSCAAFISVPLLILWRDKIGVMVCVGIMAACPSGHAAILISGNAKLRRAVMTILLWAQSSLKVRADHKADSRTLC
Chain of hT2R75 (P59540 whole entry): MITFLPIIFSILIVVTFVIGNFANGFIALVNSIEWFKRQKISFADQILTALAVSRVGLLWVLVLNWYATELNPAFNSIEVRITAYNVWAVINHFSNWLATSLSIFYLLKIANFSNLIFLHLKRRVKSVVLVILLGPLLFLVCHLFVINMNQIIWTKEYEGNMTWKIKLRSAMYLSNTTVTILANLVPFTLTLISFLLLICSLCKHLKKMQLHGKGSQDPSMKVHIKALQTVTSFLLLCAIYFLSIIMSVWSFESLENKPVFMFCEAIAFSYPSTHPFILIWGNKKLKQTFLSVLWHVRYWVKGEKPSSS
Chain of hT2R4 (Q9NYW5 whole entry): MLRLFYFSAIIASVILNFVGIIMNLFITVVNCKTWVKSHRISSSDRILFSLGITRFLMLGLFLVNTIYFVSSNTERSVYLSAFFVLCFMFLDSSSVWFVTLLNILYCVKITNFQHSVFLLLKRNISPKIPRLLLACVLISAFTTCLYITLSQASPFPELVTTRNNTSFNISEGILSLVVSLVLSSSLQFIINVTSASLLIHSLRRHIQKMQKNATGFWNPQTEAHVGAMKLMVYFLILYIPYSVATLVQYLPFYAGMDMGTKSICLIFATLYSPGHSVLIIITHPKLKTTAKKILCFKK

CCCOc1ccc(CN(Cc2ccccc2)S(=O)(=O)c2ccc(C(=O)O)cc2)cc1 [Example 5-109, 4-(N-benzyl-N-(4-propoxybenzyl)sulfamoyl)benzoic acid]
inhibition at 25 µM ([1]; receptor activated to EC80 with agonist, read-out: inhibition of bitter receptor 14): > 80%
inhibition at 25 µM ([2]; HEK293, read-out: inhibition of bitter receptor 10, compound at 25 μM, receptor activated to EC80 with agonist): 40 to 60%
inhibition at 25 µM ([3]; receptor activated to EC80 with agonist, read-out: inhibition of bitter receptor 13): 20 to 40%
inhibition at 25 µM [4]: 40 to 60%
inhibition of bitter receptor 55 [5, 22]: ++++ (80% or greater inhibition = ++++)
inhibition at 25 µM ([6]; receptor activated to EC80 with agonist, read-out: inhibition of bitter receptor 16): 20 to 40%
inhibition at 25 µM ([7]; receptor activated to EC80 with agonist, read-out: inhibition of bitter receptor 7): 20 to 40%
inhibition at 25 µM ([8]; receptor activated to EC80 with agonist, read-out: inhibition of bitter receptor 64): > 80%
inhibition of bitter receptor 65 [9, 22]: +++ (60% to 80% inhibition = +++)
inhibition of bitter receptor 54 [10]: + (20% to 40% inhibition = +)
inhibition of bitter receptor 44 [11, 22]: ++ (40% to 60% inhibition = ++)
inhibition of bitter receptor 63 [12, 22]: ++ (40% to 60% inhibition = ++)
inhibition at 25 µM ([13]; receptor activated to EC80 with agonist, read-out: inhibition of bitter receptor 71): 60 to 80%
inhibition at 25 µM ([14]; receptor activated to EC80 with agonist, read-out: inhibition of bitter receptor 3): 40 to 60%
inhibition at 25 µM ([15]; receptor activated to EC80 with agonist, read-out: inhibition of bitter receptor 51): 40 to 60%
inhibition of bitter receptor 67 [16]: + (20% to 40% inhibition = +)
inhibition at 25 µM ([17]; receptor activated to EC80 with agonist, read-out: inhibition of bitter receptor 61): 60 to 80%

Cc1ccc(S(=O)(=O)N(Cc2ccc(F)cc2)CC2CCC(C(=O)O)CC2)cc1 (centres unmarked) [Example 5-20, 4-((N-(4-fluorobenzyl)-4-methylphenylsulfonamido)methyl)-cyclohexanecarboxylic acid]
inhibition at 25 µM [1, 23]: > 80%
inhibition at 25 µM [2, 24]: 40 to 60%
inhibition at 25 µM [3, 25]: 20 to 40%
screening result against bitter receptor 55 [5]: ++++ (80% or greater inhibition = ++++)
inhibition at 25 µM [6, 26]: 40 to 60%
inhibition at 25 µM [7, 27]: 20 to 40%
inhibition at 25 µM [8, 28]: 60 to 80%
screening result against bitter receptor 65 ([9]; receptor activated to EC80 with the corresponding agonist): + (20% to 40% inhibition = +)
screening result against bitter receptor 44 [11]: +++ (60% to 80% inhibition = +++)
screening result against bitter receptor 63 [12]: ++ (40% to 60% inhibition = ++)
inhibition at 25 µM [18]: 20 to 40%
inhibition at 25 µM [13, 29]: 40 to 60%
inhibition at 25 µM [14, 30]: > 80%
inhibition at 25 µM [19]: 20 to 40%
IC50 [20]: 83 nM
inhibition at 25 µM ([17]; receptor activated to EC80 with the corresponding agonist, read-out: screening result against bitter receptor 61): > 80%
inhibition at 25 µM [21]: 40 to 60%

COc1ccc(CN(Cc2ccc(OC)cc2)S(=O)(=O)c2ccc(C(=O)O)cc2)cc1 [Example 5-30, 4-(N,N-bis(4-methoxybenzyl)sulfamoyl)benzoic acid]
inhibition at 25 µM [1, 23]: > 80%
inhibition at 25 µM [2, 24]: 40 to 60%
inhibition at 25 µM [3, 25]: 20 to 40%
screening result against bitter receptor 55 [5]: ++++ (80% or greater inhibition = ++++)
inhibition at 25 µM [6, 26]: 20 to 40%
inhibition at 25 µM [7, 27]: 20 to 40%
inhibition at 25 µM [8, 28]: > 80%
screening result against bitter receptor 44 [11]: +++ (60% to 80% inhibition = +++)
screening result against bitter receptor 63 [12]: ++++ (80% or greater inhibition = ++++)
inhibition at 25 µM [18]: 20 to 40%
inhibition at 25 µM [13, 29]: 60 to 80%
inhibition at 25 µM [14, 30]: 40 to 60%
inhibition at 25 µM [19]: 20 to 40%
IC50 [20]: 4140 nM
inhibition at 25 µM ([15]; receptor activated to EC80 with the corresponding agonist, read-out: screening result against bitter receptor 51): 40 to 60%
inhibition at 25 µM [21]: 20 to 40%
